Reference: US20220233435A1 (priority 2019, published 2022)

Assay: Release of nicotine and vanillin from devices in artificial saliva
Assay type: physicochemical
Details: device with 50 w-% PVA / 50 w-% PLA, ca. 20 mg
Procedure: Three devices of each polymer matrix formulation were chosen for drug release experiments. Prior to the experiments, the dimensions and weight of the capsules were recorded. In the drug release experiments, the capsules were immersed in 2 mL of artificial saliva, which itself consists of a solution of 16.8 mM Na2HPO4, 1.4 mM KH2PO4, and 137 mM NaCl salts dissolved in purified water at pH 6.75. The solution was kept at 37° C. and under constant stirring. Once a day, 150 μL of solution was withdrawn from each sample to measure the amount of released drug in a high-performance liquid chromatography apparatus (HPLC). An equal amount of solution was added after each withdrawal to keep the total volume constant. The experiment was ceased between 35 and 42 days, due to devices turning red resulting from paracetamol degradation, or when all the drug was deemed to be released.
The release of nicotine and vanillin was measured similarly as in Examples 1 and 2.

SMILES | cumulative release from device (day 2) [µg] | cumulative release from device (day 14) | loading degree in device [w-%] | cumulative release from device (day 4) | cumulative release from device (day 7) [µg]
CN1CCCC1c1cccnc1 (stereo not drawn) [Nicotine, nicotine] | 6 | ca. 7 μg | 0.04 |  | 
COc1cc(C=O)ccc1O [Vanillin, vanillin] |  |  | 0.32 | ca. 50 μg | 65
